*1 amine or outer side, *2 acyl side, *3 side chain or, on linkers, in order; H or OH if unused. Where a SMILES comes first, the peptide text is derived from it. Bridges are numbered along the chain shown (N, C = ends). [ ]: non-standard residue; d: D form. The star is where a group is joined. ξ: configuration not given here. Phe(4-COOH) = N[C@@H](Cc1ccc(C(=O)O)cc1)C(=O)O; Bip = N[C@@H](Cc1ccc(-c2ccccc2)cc1)C(=O)O; Phe(3-Me) = Cc1cccc(C[C@H](N)C(=O)O)c1; NMeAEEA = CN(CCOCCOCC(=O)[*:2])[*:1]; Cha = N[C@@H](CC1CCCCC1)C(=O)O; Thr(3ξ) = CC(O)[C@H](N)C(=O)O; hSer = N[C@@H](CCO)C(=O)O; Carboxymethyl = O=C(O)C*; NMeA = CN[C@@H](C)C(=O)O; Orn = NCCC[C@H](N)C(=O)O; Aun = NCCCCCCCCCCC(=O)O; Dab = NCC[C@H](N)C(=O)O; AEEA = NCCOCCOCC(=O)O

What is called IC50 is the midpoint of a concentration-inhibition curve.

The target of this experiment is T1, PD-1/PD-L1 interaction (PE-labeled human PD-L1-Ig binding to Jurkat cell line over-expressing human PD-1) (Homo sapiens, UniProt Q15116).
T1 construct: expressed in transfected cells; host or cells: Jurkat
T1 sequence (Q15116 25-288): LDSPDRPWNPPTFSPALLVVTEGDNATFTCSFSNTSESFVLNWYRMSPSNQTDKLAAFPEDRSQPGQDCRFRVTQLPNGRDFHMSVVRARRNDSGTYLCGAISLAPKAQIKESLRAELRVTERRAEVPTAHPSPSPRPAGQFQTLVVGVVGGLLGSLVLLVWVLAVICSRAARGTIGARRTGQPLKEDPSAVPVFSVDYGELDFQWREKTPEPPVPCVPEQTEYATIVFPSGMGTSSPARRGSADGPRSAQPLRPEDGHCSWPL
In words: Jurkat-PD-1 Cell Binding High-Content Screening Assay (CBA). Particulars: Jurkat-hPD-1 cells, PE-labeled PD-L1-Ig 20 nM final; read-out: Jurkat HPD1 PDL1 IC50. The essentials: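 In this imaging assay, cells in 10% FCS medium see compound for 2 h at 37 °C and then labeled ligand at 20 nM final for 1 h. Paraformaldehyde fixation, Hoechst 33342 staining and dPBS washes precede image capture.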
As to `Cc1cccc(C[C@@H]2NC(=O)[C@H](CC(=O)O)NC(=O)[C@H](Cc3ccc(OCC(=O)O)cc3)NC(=O)[C@H](C(C)O)NC(=O)CSC[C@@H](C(=O)N(C)CCOCCOCC(=O)NCCCCCCCCCCC(=O)O)NC(=O)[C@H](CCCN)NC(=O)[C@H](C(C)C)NC(=O)[C@H](CC3CCCCC3)NC(=O)[C@H](CCN)NC(=O)[C@@H](CC(C)C)NC(=O)[C@H](C)N(C)C(=O)[C@H](C(C)C)NC(=O)[C@H](Cc3ccc(-c4ccccc4)cc3)NC(=O)[C@H](C(C)C)NC2=O)c1` (stereo partly drawn) [Example 2219] ({CH2CO}-[Thr(3ξ)]Y(Carboxymethyl)D[Phe(3-Me)]V[Bip]V[NMeA][dL][Dab][Cha]V[Orn]C[NMeAEEA][Aun]-OH; thioether N-14), the IC50 is 6.2 nM.
For `CC(=O)NCCCC[C@@H]1NC(=O)[C@H](C(C)C)NC(=O)[C@H](CC2CCCCC2)NC(=O)[C@H](CCN)NC(=O)[C@@H](CC(C)C)NC(=O)[C@H](C)N(C)C(=O)[C@H](CCC(N)=O)NC(=O)[C@H](Cc2ccc(-c3ccccc3)cc2)NC(=O)[C@H](C(C)C)NC(=O)[C@H](Cc2cccc(C)c2)NC(=O)[C@H](CC(=O)O)NC(=O)[C@H](Cc2ccc(OCC(=O)O)cc2)NC(=O)[C@H](Cc2ccc(OCC(=O)O)cc2)NC(=O)CSC[C@@H](C(=O)N[C@@H](CCN)C(=O)NCCCCCCCCCCC(=O)O)NC1=O` [Example 2220] ({CH2CO}-Y(Carboxymethyl)Y(Carboxymethyl)D[Phe(3-Me)]V[Bip]Q[NMeA][dL][Dab][Cha]VK(Ac)C[Dab][Aun]-OH; thioether N-14) the value was 10.1 nM; for `CC(=O)NCCCC[C@@H]1NC(=O)[C@H](C(C)C)NC(=O)[C@H](CC2CCCCC2)NC(=O)[C@H](CCN)NC(=O)[C@@H](CC(C)C)NC(=O)[C@H](C)N(C)C(=O)[C@H](CCO)NC(=O)[C@H](Cc2ccc(-c3ccccc3)cc2)NC(=O)[C@H](C(C)C)NC(=O)[C@H](Cc2cccc(C)c2)NC(=O)[C@H](CC(=O)O)NC(=O)[C@H](Cc2ccc(OCC(=O)O)cc2)NC(=O)[C@H](Cc2ccc(OCC(=O)O)cc2)NC(=O)CSC[C@@H](C(=O)N[C@@H](CCN)C(=O)NCCCCCCCCCCC(=O)O)NC1=O` [Example 2221] ({CH2CO}-Y(Carboxymethyl)Y(Carboxymethyl)D[Phe(3-Me)]V[Bip][hSer][NMeA][dL][Dab][Cha]VK(Ac)C[Dab][Aun]-OH; thioether N-14), 11.6 nM; for `CC(=O)NCCCC[C@@H]1NC(=O)[C@H](Cc2ccc(-c3ccccc3)cc2)NC(=O)[C@H](C(C)C)NC(=O)[C@H](Cc2cccc(C)c2)NC(=O)[C@H](CC(=O)O)NC(=O)[C@H](Cc2ccc(OCC(=O)O)cc2)NC(=O)[C@H](Cc2ccc(OCC(=O)O)cc2)NC(=O)CSC[C@@H](C(=O)NCCOCCOCC(=O)NCCCCCCCCCCC(=O)O)NC(=O)[C@H](CCO)NC(=O)[C@H](C(C)C)NC(=O)[C@H](CC2CCCCC2)NC(=O)[C@H](CCN)NC(=O)[C@@H](CC(C)C)NC(=O)[C@H](C)N(C)C1=O` [Example 2222] ({CH2CO}-Y(Carboxymethyl)Y(Carboxymethyl)D[Phe(3-Me)]V[Bip]K(Ac)[NMeA][dL][Dab][Cha]V[hSer]C[AEEA][Aun]-OH; thioether N-14), 10.6 nM.
For `CC(=O)NCCCC[C@@H]1NC(=O)[C@H](Cc2ccc(-c3ccccc3)cc2)NC(=O)[C@H](CC(C)C)NC(=O)[C@H](Cc2cccc(C)c2)NC(=O)[C@H](CC(=O)O)NC(=O)[C@H](Cc2ccc(OCC(=O)O)cc2)NC(=O)[C@H](Cc2ccc(OCC(=O)O)cc2)NC(=O)CSC[C@@H](C(=O)NCCOCCOCC(=O)NCCCCCCCCCCC(=O)O)NC(=O)[C@H](CCCCN)NC(=O)[C@H](C(C)C)NC(=O)[C@H](CC2CCCCC2)NC(=O)[C@H](CCN)NC(=O)[C@@H](CC(C)C)NC(=O)[C@H](C)N(C)C1=O` [Example 2223] ({CH2CO}-Y(Carboxymethyl)Y(Carboxymethyl)D[Phe(3-Me)]L[Bip]K(Ac)[NMeA][dL][Dab][Cha]VKC[AEEA][Aun]-OH; thioether N-14) the value was 10.9 nM.
`CC(=O)NCCCC[C@@H]1NC(=O)[C@H](Cc2ccc(-c3ccccc3)cc2)NC(=O)[C@H](C(C)C)NC(=O)[C@H](Cc2c[nH]c3ccccc23)NC(=O)[C@H](CC(=O)O)NC(=O)[C@H](Cc2ccc(OCC(=O)O)cc2)NC(=O)[C@H](Cc2ccc(OCC(=O)O)cc2)NC(=O)CSC[C@@H](C(=O)NCCOCCOCC(=O)NCCCCCCCCCCC(=O)O)NC(=O)[C@H](CCCCN)NC(=O)[C@H](C(C)C)NC(=O)[C@H](CC2CCCCC2)NC(=O)[C@H](CCN)NC(=O)[C@@H](CC(C)C)NC(=O)[C@H](C)N(C)C1=O` [Example 2224] ({CH2CO}-Y(Carboxymethyl)Y(Carboxymethyl)DWV[Bip]K(Ac)[NMeA][dL][Dab][Cha]VKC[AEEA][Aun]-OH; thioether N-14): the IC50 is 5.7 nM.
The value for `CC(C)C[C@@H]1NC(=O)[C@H](Cc2c[nH]c3ccccc23)NC(=O)[C@H](CC(=O)O)NC(=O)[C@H](Cc2ccc(C(=O)O)cc2)NC(=O)[C@H](Cc2ccc(OCC(=O)O)cc2)NC(=O)CSC[C@@H](C(=O)NCCOCCOCC(=O)NCCCCCCCCCCC(=O)O)NC(=O)[C@H](CO)NC(=O)[C@H](C(C)C)NC(=O)[C@H](CC2CCCCC2)NC(=O)[C@H](CCN)NC(=O)[C@@H](CC(C)C)NC(=O)[C@H](C)N(C)C(=O)[C@H](C(C)C)NC(=O)[C@H](Cc2ccc(-c3ccccc3)cc2)NC1=O` [Example 2225] ({CH2CO}-Y(Carboxymethyl)[Phe(4-COOH)]DWL[Bip]V[NMeA][dL][Dab][Cha]VSC[AEEA][Aun]-OH; thioether N-14) was 9.7 nM; that for `CC(C)C[C@@H]1NC(=O)[C@H](Cc2c[nH]c3ccccc23)NC(=O)[C@H](CC(=O)O)NC(=O)[C@H](Cc2ccc(C(=O)O)cc2)NC(=O)[C@H](Cc2ccc(OCC(=O)O)cc2)NC(=O)CSC[C@@H](C(=O)NCCOCCOCC(=O)NCCCCCCCCCCC(=O)O)NC(=O)[C@H](CCO)NC(=O)[C@H](C(C)C)NC(=O)[C@H](CC2CCCCC2)NC(=O)[C@H](CCN)NC(=O)[C@@H](CC(C)C)NC(=O)[C@H](C)N(C)C(=O)[C@H](CCC(N)=O)NC(=O)[C@H](Cc2ccc(-c3ccccc3)cc2)NC1=O` [Example 2226] ({CH2CO}-Y(Carboxymethyl)[Phe(4-COOH)]DWL[Bip]Q[NMeA][dL][Dab][Cha]V[hSer]C[AEEA][Aun]-OH; thioether N-14) was 26.7 nM.
For `CC(C)C[C@@H]1NC(=O)[C@H](Cc2c[nH]c3ccccc23)NC(=O)[C@H](CC(=O)O)NC(=O)[C@H](Cc2ccc(C(=O)O)cc2)NC(=O)[C@H](Cc2ccc(OCC(=O)O)cc2)NC(=O)CSC[C@@H](C(=O)NCCOCCOCC(=O)NCCCCCCCCCCC(=O)O)NC(=O)[C@H](CCO)NC(=O)[C@H](C(C)C)NC(=O)[C@H](CC2CCCCC2)NC(=O)[C@H](CCN)NC(=O)[C@@H](CC(C)C)NC(=O)[C@H](C)N(C)C(=O)[C@H](CCC(N)=O)NC(=O)[C@H](Cc2ccc(-c3ccccc3)cc2)NC1=O` [Example 2227] ({CH2CO}-Y(Carboxymethyl)[Phe(4-COOH)]DWL[Bip]Q[NMeA][dL][Dab][Cha]V[hSer]C[AEEA][Aun]-OH; thioether N-14), the IC50 was determined as 34 nM.
As for `CC(C)C[C@@H]1NC(=O)[C@H](Cc2c[nH]c3ccccc23)NC(=O)[C@H](CC(=O)O)NC(=O)[C@H](Cc2ccc(C(=O)O)cc2)NC(=O)[C@H](Cc2ccc(OCC(=O)O)cc2)NC(=O)CSC[C@@H](C(=O)NCCOCCOCC(=O)NCCCCCCCCCCC(=O)O)NC(=O)[C@H](CO)NC(=O)[C@H](C(C)C)NC(=O)[C@H](CC2CCCCC2)NC(=O)[C@H](CCN)NC(=O)[C@@H](CC(C)C)NC(=O)[C@H](C)N(C)C(=O)[C@H](Cc2ccc(O)cc2)NC(=O)[C@H](Cc2ccc(-c3ccccc3)cc2)NC1=O` [Example 2228] ({CH2CO}-Y(Carboxymethyl)[Phe(4-COOH)]DWL[Bip]Y[NMeA][dL][Dab][Cha]VSC[AEEA][Aun]-OH; thioether N-14), the IC50 is 52 nM.
With `CC(=O)NCCCC[C@@H]1NC(=O)[C@H](Cc2ccc(-c3ccccc3)cc2)NC(=O)[C@H](CC(C)C)NC(=O)[C@H](Cc2c[nH]c3ccccc23)NC(=O)[C@H](CC(=O)O)NC(=O)[C@H](Cc2ccc(C(=O)O)cc2)NC(=O)[C@H](Cc2ccc(OCC(=O)O)cc2)NC(=O)CSC[C@@H](C(=O)NCCOCCOCC(=O)NCCCCCCCCCCC(=O)O)NC(=O)[C@H](CO)NC(=O)[C@H](C(C)C)NC(=O)[C@H](CC2CCCCC2)NC(=O)[C@H](CCN)NC(=O)[C@@H](CC(C)C)NC(=O)[C@H](C)N(C)C1=O` [Example 2229] ({CH2CO}-Y(Carboxymethyl)[Phe(4-COOH)]DWL[Bip]K(Ac)[NMeA][dL][Dab][Cha]VSC[AEEA][Aun]-OH; thioether N-14), the IC50 stood at 4.8 nM.
For `CC(=O)NCCCC[C@@H]1NC(=O)[C@H](C(C)C)NC(=O)[C@H](CC2CCCCC2)NC(=O)[C@H](CCN)NC(=O)[C@@H](CC(C)C)NC(=O)[C@H](C)N(C)C(=O)[C@H](CCC(N)=O)NC(=O)[C@H](Cc2ccc(-c3ccccc3)cc2)NC(=O)[C@H](CC(C)C)NC(=O)[C@H](Cc2cccc(C)c2)NC(=O)[C@H](CC(=O)O)NC(=O)[C@H](Cc2ccc(C(=O)O)cc2)NC(=O)[C@H](Cc2ccc(OCC(=O)O)cc2)NC(=O)CSC[C@@H](C(=O)NCCOCCOCC(=O)NCCCCCCCCCCC(=O)O)NC1=O` [Example 2230] ({CH2CO}-Y(Carboxymethyl)[Phe(4-COOH)]D[Phe(3-Me)]L[Bip]Q[NMeA][dL][Dab][Cha]VK(Ac)C[AEEA][Aun]-OH; thioether N-14) the value was 13 nM.
The value for `Cc1cccc(C[C@@H]2NC(=O)[C@H](CC(=O)O)NC(=O)[C@H](Cc3ccc(C(=O)O)cc3)NC(=O)[C@H](Cc3ccc(OCC(=O)O)cc3)NC(=O)CSC[C@@H](C(=O)NCCOCCOCC(=O)NCCCCCCCCCCC(=O)O)NC(=O)[C@H](CCCCN)NC(=O)[C@H](C(C)C)NC(=O)[C@H](CC3CCCCC3)NC(=O)[C@H](CCN)NC(=O)[C@@H](CC(C)C)NC(=O)[C@H](C)N(C)C(=O)[C@H](C(C)C)NC(=O)[C@H](Cc3ccc(-c4ccccc4)cc3)NC(=O)[C@H](CC(C)C)NC2=O)c1` [Example 2231] ({CH2CO}-Y(Carboxymethyl)[Phe(4-COOH)]D[Phe(3-Me)]L[Bip]V[NMeA][dL][Dab][Cha]VKC[AEEA][Aun]-OH; thioether N-14) was 3.3 nM.

These data come from patent US20260070945A1, “MACROCYCLIC IMMUNOMODULATORS” (Bristol-Myers Squibb Company, priority 2022, published 2026).
